Results on 22 molecules are retold here after ChEMBL document CHEMBL2029316, “Linker-based hemisuccinate derivatives of artemisinin: synthesis and antimalarial assessment against multidrug-resistant Plasmodium yoelii nigeriensis in mice” (J Med Chem, 2012).

Each structure is given as a SMILES string. Calls of active or inactive are those of the source. The rule behind the calls is not given here.

Broadly, the logP is the decadic logarithm of the partition coefficient of the neutral form, usually between octanol and water. The low end stands for lower lipophilicity, the high end for higher lipophilicity.

In series [1] the test system is Plasmodium yoelii nigeriensis. As to the kind of experiment: Antimalarial activity against chloroquine-, mefloquine-, halofantrine-resistant Plasmodium yoelii nigeriensis blood stream schizonts infected in Swiss mouse assessed as suppression of parasitemia at 12 mg/kg, im administered once daily for 4 days relative to control. Type of series: functional. Particulars: route intramuscular.

Series [2] relates to Plasmodium yoelii nigeriensis. As to the kind of experiment: Antimalarial activity against chloroquine-, mefloquine-, halofantrine-resistant Plasmodium yoelii nigeriensis blood stream schizonts infected in Swiss mouse assessed as disease cured mouse at 3 mg/kg, im administered once daily for 4 days measured on day 28. On the set-up: dose 3 mg/kg. It counts as functional, organism-based.

Series [3] has as its system Plasmodium yoelii nigeriensis. As to the kind of experiment: Antimalarial activity against chloroquine-, mefloquine-, halofantrine-resistant Plasmodium yoelii nigeriensis blood stream schizonts infected in Swiss mouse assessed as disease cured mouse at 48 mg/kg, im administered once daily for 4 days measured on day 28. Type of series: functional, organism-based. Set-up: dose 48 mg/kg.

Series [4] concerns Plasmodium yoelii nigeriensis. As to the kind of experiment: Antimalarial activity against chloroquine-, mefloquine-, halofantrine-resistant Plasmodium yoelii nigeriensis blood stream schizonts infected in Swiss mouse assessed as suppression of parasitemia at 6 mg/kg, im administered once daily for 4 days relative to control. Type of series: functional. Conditions: route intramuscular.

Series [5] can be described thus: Lipophilicity, log P of the compound. It counts as physicochemical. Conditions: octanol/water.
The subject of series [6] is Plasmodium yoelii nigeriensis. As to the kind of experiment: Antimalarial activity against chloroquine-, mefloquine-, halofantrine-resistant Plasmodium yoelii nigeriensis blood stream schizonts infected in Swiss mouse assessed as disease cured mouse at 24 mg/kg, im administered once daily for 4 days measured on day 28. It counts as functional, organism-based. On the set-up: dose 24 mg/kg.

Series [7] has as its system Plasmodium yoelii nigeriensis. The experiment in a line: Antimalarial activity against chloroquine-, mefloquine-, halofantrine-resistant Plasmodium yoelii nigeriensis blood stream schizonts infected in Swiss mouse assessed as suppression of parasitemia at 48 mg/kg, im administered once daily for 4 days relative to control. Type of series: functional. Conditions: route intramuscular.

Series [8] deals with Plasmodium yoelii nigeriensis. As to the kind of experiment: Antimalarial activity against chloroquine-, mefloquine-, halofantrine-resistant Plasmodium yoelii nigeriensis blood stream schizonts infected in Swiss mouse assessed as suppression of parasitemia at 24 mg/kg, im administered once daily for 4 days relative to control. Type of series: functional. Conditions: route intramuscular.

The subject of series [9] is Plasmodium yoelii nigeriensis. As to the kind of experiment: Antimalarial activity against chloroquine-, mefloquine-, halofantrine-resistant Plasmodium yoelii nigeriensis blood stream schizonts infected in Swiss mouse assessed as suppression of parasitemia at 3 mg/kg, im administered once daily for 4 days relative to control. It counts as functional. Conditions: route intramuscular.

The subject of series [10] is Plasmodium yoelii nigeriensis. The experiment in a line: Antimalarial activity against chloroquine-, mefloquine-, halofantrine-resistant Plasmodium yoelii nigeriensis blood stream schizonts infected in Swiss mouse assessed as disease cured mouse at 6 mg/kg, im administered once daily for 4 days measured on day 28. Type of series: functional, organism-based. Set-up: dose 6 mg/kg.

Series [11] concerns Plasmodium yoelii nigeriensis. As to the kind of experiment: Antimalarial activity against chloroquine-, mefloquine-, halofantrine-resistant Plasmodium yoelii nigeriensis blood stream schizonts infected in Swiss mouse assessed as disease cured mouse at 12 mg/kg, im administered once daily for 4 days measured on day 28. Type of series: functional, organism-based. On the set-up: dose 12 mg/kg.

The subject of series [12] is Plasmodium yoelii nigeriensis. The experiment in a line: Antimalarial activity against chloroquine-, mefloquine-, halofantrine-resistant Plasmodium yoelii nigeriensis infected in Swiss mouse assessed as protection from infection at 3 to 48 mg/kg, im administered once daily for 4 days measured on day 28 relative to artesunic acid. Type of series: functional. Particulars: dose mg/kg 3-48; route intramuscular.

`C[C@H]1[C@@H](OCCCO)O[C@@H]2O[C@@]3(C)CC[C@H]4[C@H](C)CC[C@@H]1[C@@]24OO3`: the Activity in [1] came to 100%; in series [4] it was 100%; in [7], 100%; in [8], 100%; in [9], 98.3%. Moreover, the result in [2] was inactive. Besides, the outcome in series [3] and in series [6] was Active. In [5], this molecule came in with a lipophilicity (logP) of 3.1.

On to `C[C@H]1[C@@H](OCCOCCOCCOCCOC(=O)CCC(=O)O)O[C@@H]2O[C@@]3(C)CC[C@H]4[C@H](C)CC[C@@H]1[C@@]24OO3`, for which the result in series [3] was inactive. The molecule also yielded a log partition coefficient (logP) in [5] of 2.42. Moreover, the Activity in series [7] was determined as 97%.

On to `C[C@H]1[C@@H](OCCOC(=O)CCC(=O)O)O[C@@H]2O[C@@]3(C)CC[C@H]4[C@H](C)CC[C@@H]1[C@@]24OO3`, for which the outcome in [3] was inactive. Moreover, the logP in [5] came to 2.89. For the same molecule, the Activity in series [7] is listed as 100%.

In series [5], `C[C@H]1[C@@H](OCCCCCCCCCCCCO)O[C@@H]2O[C@@]3(C)CC[C@H]4[C@H](C)CC[C@@H]1[C@@]24OO3` yielded a log partition coefficient (logP) of 6.89. For the same molecule, in [6], the result was inactive. Besides, the Activity in series [7] and in [8] was 100% each time.

Regarding `CCO[C@H]1O[C@@H]2O[C@@]3(C)CC[C@H]4[C@H](C)CC[C@@H]([C@H]1C)[C@@]24OO3` [ARTEMOTIL], in series [2], the result was inactive. In addition, the Activity in series [4] and in [9] was 100% each time. Moreover, the result in [10] was Active.

In turn, `C[C@H]1[C@@H](OCCOCCOC(=O)CCC(=O)O)O[C@@H]2O[C@@]3(C)CC[C@H]4[C@H](C)CC[C@@H]1[C@@]24OO3` came in with a logP in series [5] of 2.73. For the same molecule, in [7], the Activity was found to be 100%.

Take `C[C@H]1[C@@H](OCCCOC(=O)CCC(=O)O)O[C@@H]2O[C@@]3(C)CC[C@H]4[C@H](C)CC[C@@H]1[C@@]24OO3`: the result in series [3] was inactive. Moreover, the logP in series [5] stood at 2.99. Moreover, in series [7], the Activity is on record as 100%.

Take `C[C@H]1[C@@H](OCCOCCO)O[C@@H]2O[C@@]3(C)CC[C@H]4[C@H](C)CC[C@@H]1[C@@]24OO3`: the Activity in series [1], in series [4], in series [7] and in series [8] was 100% each time. Further, the outcome in series [3] and in series [6] was Active. Moreover, the logP in series [5] was determined as 2.83. Moreover, the result in [10] was inactive.

With `C[C@H]1[C@@H](OCCCCCCOC(=O)CCC(=O)O)O[C@@H]2O[C@@]3(C)CC[C@H]4[C@H](C)CC[C@@H]1[C@@]24OO3`, the result in series [3] was inactive. The log partition coefficient (logP) in series [5] turned out to be 4.28. Besides, the Activity in [7] stood at 98.55%.

Take `C[C@H]1[C@@H](OCCCCOC(=O)CCC(=O)O)O[C@@H]2O[C@@]3(C)CC[C@H]4[C@H](C)CC[C@@H]1[C@@]24OO3`: in series [5], the logP amounted to 3.45. Also, the Activity in series [7] is on record as 100%.

Take `C[C@H]1[C@@H](OCCCCCCCCOC(=O)CCC(=O)O)O[C@@H]2O[C@@]3(C)CC[C@H]4[C@H](C)CC[C@@H]1[C@@]24OO3`: the result in series [11] was inactive. Moreover, the Activity in series [1], in series [7] and in series [8] was 100% each time. The result in series [3] and in [6] was Active. In addition, the logP in series [5] is 5.12. In addition, the “fold change (FC)” value in series [12] is given as 2.

For the molecule `C[C@H]1[C@@H](OCCOCCOCCOCCO)O[C@@H]2O[C@@]3(C)CC[C@H]4[C@H](C)CC[C@@H]1[C@@]24OO3`, the result in [11] and in series [6] was inactive. In addition, the Activity in [1], in series [7] and in series [8] was 100% throughout. The molecule further returned a logP in series [5] of 2.52.

In the case of `C[C@H]1[C@@H](OCCO)O[C@@H]2O[C@@]3(C)CC[C@H]4[C@H](C)CC[C@@H]1[C@@]24OO3`, the Activity in [1], in [4], in series [7] and in series [8] was 100% in each case. Moreover, the result in series [3] and in series [6] was Active. The molecule further showed a lipophilicity (logP) in series [5] of 2.99.

For the molecule `C[C@H]1[C@@H](OCCCCCCO)O[C@@H]2O[C@@]3(C)CC[C@H]4[C@H](C)CC[C@@H]1[C@@]24OO3`, the outcome in series [11], in series [3] and in series [6] was Active. Besides, the Activity in [1], in [4], in [7], in series [8] and in series [9] was 100% each time. Further, the result in series [2] was inactive. Also, the lipophilicity (logP) in series [5] is 4.38.

With `C[C@H]1[C@@H](OCCCCCCCCO)O[C@@H]2O[C@@]3(C)CC[C@H]4[C@H](C)CC[C@@H]1[C@@]24OO3`, the result in series [11], in [3] and in [6] was Active. The Activity in series [1], in series [4], in [7] and in [8] was 100% throughout. The log partition coefficient (logP) in series [5] came out at 5.22.

Consider `C[C@H]1[C@@H](OCCCCCOC(=O)CCC(=O)O)O[C@@H]2O[C@@]3(C)CC[C@H]4[C@H](C)CC[C@@H]1[C@@]24OO3`, for which the result in [3] and in [6] was inactive. Further, in [5], the logP turned out to be 3.86. The Activity came to 94.91% in series [7] and 92.73% in [8].

As to `C[C@H]1[C@@H](OCCOCCOCCOC(=O)CCC(=O)O)O[C@@H]2O[C@@]3(C)CC[C@H]4[C@H](C)CC[C@@H]1[C@@]24OO3`, the lipophilicity (logP) in series [5] was 2.54. Moreover, the Activity in series [7] is on record as 92%.

Consider `C[C@H]1[C@@H](OCCOCCOCCO)O[C@@H]2O[C@@]3(C)CC[C@H]4[C@H](C)CC[C@@H]1[C@@]24OO3`, for which the outcome in series [11] and in series [6] was inactive. For the same molecule, the Activity in series [1], in series [7] and in series [8] was 100% each time. In series [5], this molecule showed a log partition coefficient (logP) of 2.68.

In the case of `C[C@H]1[C@@H](OCCCCCCCCCCO)O[C@@H]2O[C@@]3(C)CC[C@H]4[C@H](C)CC[C@@H]1[C@@]24OO3`, the outcome in series [11] and in series [10] was inactive. Also, the Activity in series [1], in series [4], in series [7] and in series [8] was 100% in each case. Further, in series [3], the result was Active. This molecule also displayed a lipophilicity (logP) in [5] of 6.05.

As to `C[C@H]1[C@@H](OCCCCCCCCCOC(=O)CCC(=O)O)O[C@@H]2O[C@@]3(C)CC[C@H]4[C@H](C)CC[C@@H]1[C@@]24OO3` (mixture of isomers), the outcome in [11] and in [6] was inactive. For the same molecule, the Activity in [1] is 67.27%; in [7], 100%; in [8], 93.09%. Also, the result in [3] was Active. Also, the logP in series [5] was 5.53.

Turning to `C[C@H]1[C@@H](OCCCCO)O[C@@H]2OC3(C)CC[C@H]4[C@H](C)CC[C@@H]1[C@@]24OO3`, the result in series [11], in series [3] and in [6] was Active. Further, the Activity is 100% in [1]; 100% in series [4]; 100% in [7]; 100% in [8]; 98.3% in series [9]. Further, in [5], the logP was 3.55.

In the case of `C[C@H]1[C@@H](OCCCCCO)O[C@@H]2O[C@@]3(C)CC[C@H]4[C@H](C)CC[C@@H]1[C@@]24OO3`, the result in series [11], in [3] and in series [6] was Active. The Activity in [1], in series [4], in series [7] and in series [8] was 100% in each case. In series [5], this molecule had a log partition coefficient (logP) of 3.97.
